Test results from US8288554B2, “Pyridin-3-yl derivatives as immunomodulating agents” (Actelion Pharmaceuticals Ltd., priority 2006, dated 2012).
pEC50: −log10 of the molar value.

Assays:
[1] = biological target: recombinant human S1P1 receptor (Homo sapiens, UniProt P21453); assay: GTPγS assay to determine EC50 values; format: biochemical; details: agonist-induced 35S-GTPγS binding, membranes of CHO cells expressing recombinant human S1P1 receptor
Experimental: GTPγS binding assays are performed in 96 well microtiter plates (Nunc, 442587) in a final volume of 200 μl, using membrane preparations of CHO cells expressing recombinant human S1P1 receptor. Assay conditions are 20 mM Hepes (Fluka, 54461), 100 mM NaCl (Fluka, 71378), 5 mM MgCl2 (Fluka, 63064), 0.1% BSA (Calbiochem, 126609), 1 μM GDP (Sigma, G-7127), 2.5% DMSO (Fluka, 41644), […] ^35S-GTPγS (Amersham Biosciences, SJ1320). The pH is 7.4. Test compounds are dissolved and diluted in 100% DMSO and pre-incubated at room temperature for 30 min in 150 μl of the above assay buffer, in the absence of ^35S-GTPγS. After addition of 50 μl of ^35S-GTPγS, the assay is incubated for 1 h at rt. The assay is terminated by transfer of the reaction mixture to a Multiscreen plate (Millipore, MAHFC1H60) using a cell harvester from Packard Biosciences, and the plates are washed with ice-cold 10 mM Na2HPO4/NaH2PO4 (70%/30%), dried, sealed at the bottom and, after addition of 25 μl MicroScint20 (Packard Biosciences, order#6013621), sealed on the top. Membrane-bound ^35S-GTPγS is measured with a TopCount from Packard Biosciences.
EC50 is the concentration of agonist inducing 50% of the maximal specific ^35S-GTPγS binding. Specific binding is determined by subtracting non-specific binding from maximal binding. Maximal binding is the amount of cpm bound to the Multiscreen plate in the presence of 10 μM of S1P. Non-specific binding is the amount of binding in the absence of an agonist in the assay.

circulating lymphocytes = assay: Assessment of in vivo efficacy: circulating lymphocytes after oral administration; set-up: species or system rat; details: 6 h after oral administration of 10 mg/kg, normotensive male Wistar rats, compared to vehicle group
Experimental: The efficacy of the compounds of Formula (I) is assessed by measuring the circulating lymphocytes after oral administration of 3 to 30 mg/kg of a compound of Formula (I) to normotensive male Wistar rats. The animals are housed in climate-controlled conditions with a 12 h-light/dark cycle, and have free access to normal rat chow and drinking water. Blood is collected before and 3, 6 and 24 h after drug administration. Full blood is subjected to hematology using Advia Hematology system (Bayer Diagnostics, Zurich, Switzerland).
All data are presented as mean±SEM. Statistical analyses are performed by analysis of variance (ANOVA) using Statistica (StatSoft) and the Student-Newman-Keuls procedure for multiple comparisons. The null hypothesis is rejected when p<0.05.
Lymphocyte counts 6 h after oral administration have been measured for 6 exemplified compounds and are in the range of −77% to −61% with an average of −68%.

Sequence of recombinant human S1P1 receptor (P21453 whole entry): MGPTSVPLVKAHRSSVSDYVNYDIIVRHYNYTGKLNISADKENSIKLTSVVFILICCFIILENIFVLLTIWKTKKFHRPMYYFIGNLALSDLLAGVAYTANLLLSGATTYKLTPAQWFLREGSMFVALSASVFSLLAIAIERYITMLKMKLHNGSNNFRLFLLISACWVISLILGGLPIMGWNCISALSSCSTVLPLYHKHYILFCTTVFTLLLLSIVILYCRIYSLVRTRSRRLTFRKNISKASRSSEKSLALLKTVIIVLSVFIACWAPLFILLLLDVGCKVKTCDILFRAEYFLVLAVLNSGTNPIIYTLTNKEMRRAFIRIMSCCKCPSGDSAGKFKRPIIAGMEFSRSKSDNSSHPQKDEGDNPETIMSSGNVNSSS

Row | SMILES | pEC50 [1] | Lymphocyte counts (circulating lymphocytes)
1 | Cc1cc(-c2noc(-c3cnc(OC(C)C)c(Cl)c3)n2)cc(C)c1OCC(O)CO (racemic) [Example 1, (RS)-3-{4-[5-(5-chloro-6-isopropoxy-pyridin-3-yl)-[1,2,4]oxadiazol-3-yl]-2,6-dimethyl-phenoxy}-propane-1,2-diol] | 9.22 | –
2 | Cc1cc(-c2noc(-c3cnc(OC(C)C)c(Cl)c3)n2)cc(C)c1OCC(O)CNC(=O)CO (racemic) [Example 3, N—((RS)-3-{4-[5-(5-chloro-6-isopropoxy-pyridin-3-yl)-[1,2,4]oxadiazol-3-yl]-2,6-dimethyl-phenoxy}-2-hydroxy-propyl)-2-hydroxy-acetamide] | – | −71%
3 | Cc1cc(-c2nc(-c3cc(C)c(OCC(O)CNC(=O)CO)c(C)c3)no2)cnc1CC(C)C (racemic) [Example 5, 2-Hydroxy-N—((RS)-2-hydroxy-3-{4-[5-(6-isobutyl-5-methyl-pyridin-3-yl)-[1,2,4]oxadiazol-3-yl]-2,6-dimethyl-phenoxy}-propyl)-acetamide] | 8.57 | –
4 | CCc1cc(-c2noc(-c3cnc(CC(C)C)c(C)c3)n2)cc(C)c1OCC(O)CNC(=O)CO (racemic) [Example 8, N—((RS)-3-{2-Ethyl-4-[5-(6-isobutyl-5-methyl-pyridin-3-yl)-[1,2,4]oxadiazol-3-yl]-6-methyl-phenoxy}-2-hydroxy-propyl)-2-hydroxy-acetamide] | – | −61%
5 | Cc1cc(-c2noc(-c3cnc(CC(C)C)c(CC(C)C)c3)n2)cc(C)c1OCC(O)CO (racemic) [Example 12, (RS)-3-{4-[5-(5,6-Diisobutyl-pyridin-3-yl)-[1,2,4]oxadiazol-3-yl]-2,6-dimethyl-phenoxy}-propane-1,2-diol] | – | −61%
6 | Cc1cc(-c2nc(-c3cc(C)c(OCC(O)CNC(=O)CO)c(Cl)c3)no2)cnc1CC(C)C (stereo not shown) [Example 42] | 9.22 | –
7 | COc1cc(-c2noc(-c3cnc(CC(C)C)c(C)c3)n2)cc(Cl)c1OCC(O)CNC(=O)CO (stereo not shown) [Example 43] | 8.40 | –
8 | CCc1cc(-c2noc(-c3cnc(OC(C)C)c(C)c3)n2)cc(C)c1OC[C@@H](O)CNC(=O)CO [Example 88] | 10.00 | –
9 | CCc1cc(-c2noc(-c3cnc(OC(C)C)c(C)c3)n2)cc(C)c1CCC(=O)NCCO [Example 89, 3-{2-Ethyl-4-[5-(6-isopropoxy-5-methyl-pyridin-3-yl)-[1,2,4]oxadiazol-3-yl]-6-methyl-phenyl}-N-(2-hydroxy-ethyl)-propionamide] | 8.46 | –
10 | CCc1cc(-c2nc(-c3cnc(OC(C)C)c(C)c3)no2)cc(C)c1OC[C@@H](O)CO [Example 92] | 8.29 | –
